Test results from ChEMBL document CHEMBL3751697, “Enantiomeric 3-deaza-1',6'-isoneplanocin and its 3-bromo analogue: Synthesis by the Ullmann reaction and their antiviral properties” (Bioorg Med Chem Lett, 2016).
Activity calls are given as the source filed them. The calls are words filed in the database; no cut-off is given here.

Columns and labels:
[1] = Selectivity index, ratio of CC50 for human HepG2 cells to EC50 for Zaire ebolavirus; assay type: toxicity, cell-based; settings: read-out: Ratio CC50/EC50
Ebolavirus [2] = test: Antiviral activity against Zaire ebolavirus infected in human HepG2 cells; assay type: functional, cell-based; settings: Orthoebolavirus
[3] = Cytotoxicity against human HepG2 cells; assay type: cell-based
[4] = Cytotoxicity against African monkey Vero cells; assay type: cell-based; settings: chlorocebus sabaeus
Rift Valley fever virus = test: Antiviral activity against Rift Valley fever virus; assay type: functional, organism-based
[5] = tested on: Japanese encephalitis virus; test: Antiviral activity against Japanese encephalitis virus; assay type: functional, organism-based
Nipah virus = test: Antiviral activity against Nipah virus; assay type: functional, organism-based; settings: Henipavirus nipahense
Measles morbillivirus = test: Antiviral activity against Measles virus; assay type: functional, organism-based
Chikungunya virus = test: Antiviral activity against Chikungunya virus; assay type: functional
[6] = Selectivity index, ratio of CC50 for African monkey Vero cells to EC50 for Zaire ebolavirus; assay type: toxicity, cell-based; settings: read-out: Ratio CC50/EC50
Yellow fever virus = test: Antiviral activity against Yellow fever virus; assay type: functional, organism-based
Human betaherpesvirus 5 = test: Antiviral activity against Human cytomegalovirus; assay type: functional, organism-based
Ebolavirus [7] = test: Antiviral activity against Zaire ebolavirus infected in African monkey Vero cells; assay type: functional, cell-based; settings: Orthoebolavirus
Hepatitis C virus = test: Antiviral activity against Hepatitis C virus; assay type: functional, organism-based; settings: Hepacivirus hominis
Tacaribe virus = test: Antiviral activity against Tacaribe virus; assay type: functional, organism-based; settings: Mammarenavirus tacaribeense
Dengue virus = test: Antiviral activity against Dengue virus; assay type: functional, organism-based
Vaccinia virus = test: Antiviral activity against Vaccinia virus; assay type: functional, organism-based; settings: Orthopoxvirus vaccinia
Lyssavirus rabies = test: Antiviral activity against Rabies virus; assay type: functional
Enterovirus C = test: Antiviral activity against Poliovirus; assay type: functional, organism-based
West Nile virus = test: Antiviral activity against West Nile virus; assay type: functional, organism-based
Punta Toro virus = test: Antiviral activity against Punta Toro virus; assay type: functional, organism-based
[8] = tested on: Venezuelan equine encephalitis virus; test: Antiviral activity against Venezuelan equine encephalitis virus; assay type: functional, organism-based
Monkeypox virus = test: Antiviral activity against Monkeypox virus; assay type: functional, organism-based
Hepatitis B virus = test: Antiviral activity against Hepatitis B virus; assay type: functional, organism-based
Norovirus = test: Antiviral activity against Norovirus; assay type: functional

Row | Compound | EC50 (Ebolavirus [2]) | EC90 (Ebolavirus [2]) | CC50 [3] | CC50 [4] | Activity (Rift Valley fever virus) | Activity [5] | Activity (Nipah virus) | EC50 (Measles morbillivirus) | Activity (Chikungunya virus) | selectivity ratio [6] | Activity (Yellow fever virus) | EC50 (Human betaherpesvirus 5) | EC50 (Ebolavirus [7]) | Activity (Hepatitis C virus) | Activity (Tacaribe virus) | Activity (Dengue virus) | Activity (Vaccinia virus) | Activity (Lyssavirus rabies) | Activity (Enterovirus C) | Activity (West Nile virus) | further results
1 | Nc1ncc(Br)c2c1ncn2[C@@H]1C=C(CO)[C@@H](O)[C@H]1O | < 320 nM | 3020 nM | 21100 nM |  |  |  |  |  |  |  |  |  |  |  |  |  |  |  |  |  | selectivity ratio [1]: > 67
2 | Nc1ncc(Br)c2c1ncn2C1=C[C@H](CO)[C@@H](O)[C@H]1O |  |  |  | > 100000 nM | inactive | inactive | inactive | < 290 nM | inactive | > 1000 | inactive | < 100 nM | < 100 nM | inactive | inactive | inactive |  |  |  |  | 
3 | Nc1nccc2c1ncn2C1=C[C@@H](CO)[C@H](O)[C@@H]1O | < 320 nM | < 320 nM | > 100000 nM |  |  |  |  |  |  |  |  | < 100 nM |  |  |  |  | inactive | inactive | inactive | inactive | Activity (Measles morbillivirus): inactive; Activity (Punta Toro virus): inactive; Activity [8]: inactive; Activity (Monkeypox virus): inactive
4 | Nc1ncc(Br)c2c1ncn2C1=C[C@@H](CO)[C@H](O)[C@@H]1O |  |  |  | > 100000 nM | inactive | inactive | inactive | < 290 nM | inactive | > 28.5 | inactive | < 100 nM | 3510 nM | inactive | inactive | inactive |  |  |  |  | EC50 (Hepatitis B virus): 3250 nM; EC50 (Norovirus): 1300 nM
5 | Nc1nccc2c1ncn2C1=C[C@H](CO)[C@@H](O)[C@H]1O | < 320 nM | 74100 nM | > 100000 nM |  |  |  |  | < 380 nM |  |  |  | < 100 nM |  |  |  |  | inactive | inactive | inactive | inactive | Activity (Punta Toro virus): inactive; Activity [8]: inactive; Activity (Monkeypox virus): inactive
